Experimental data published in article PMC9283466, “In silico identification of two peptides with antibacterial activity against multidrug-resistant Staphylococcus aureus” (NPJ Biofilms and Microbiomes, 2022).
In brackets after ≈: the same amount, converted by molar mass. Bridge positions count the residues as written; N and C are the ends. Peptide text beside a SMILES is read from it.

Experiments:
[1] = tested on: eLUCidate Raw 264.7 NF-kB reporter cell line
G. mellonella larvae = tested on: G. mellonella larvae; set-up: species or system Galleria mellonella; conditions: in vivo
Experimental: All procedures of larvae rearing, injection and G. mellonella killing assays were conducted using validated methods. In each assay, ten larvae weighing between 280–300 mg each were randomly selected. Larvae with the previous melanisation of the cuticle were excluded from the experiments. All experiments were designed in at least four experimental and biological replicates.
Firstly, we evaluated the putative toxic effect of the peptides HG2 and HG4 in G. mellonella. […] After injection with peptides, the larvae were maintained at 37 °C in the dark. Phenotypic aspects such as melanisation and mobility of the larvae as well as survival were monitored every 24 for 96 h. Larvae not inoculated with AMPs were used as controls.

[2] = Peptide-lipid interaction and insertion, lipid monolayer; type: binding, S. aureus; conditions: LTA; for Speed of insertion: initial surface pressure 30+/-0.5 mN/m; for Critical pressure of insertion πc: peptide 1 µg/mL
Experimental: Peptide–lipid interaction was measured using a lipid monolayer formed at the air:water interface with total lipid extracts and pure lipids. Total lipids were extracted from overnight cultures of MRSA or human erythrocytes using the Folch extraction procedure[14],[40]. Extracted total lipids were dried, re-solubilised in chloroform:methanol (2:1, v/v) and stored at −20 °C under nitrogen. Pure prokaryotic and eukaryotic lipids used were: cardiolipin, POPC (1-palmitoyl-2-oleoyl-glycero-3-phosphocholine), POPE (1-palmitoyl-2-oleoyl-sn-glycero-3-phosphoethanolamine) and POPG (1-palmitoyl-2-oleoyl-sn-glycero-3-phospho-(1’-rac-glycerol) (Avanti Polar Lipid). LTA (Lipoteichoic acid from S. aureus) and LPS (lipopolysaccharide from E. coli) (Invitrogen, UK) were also tested. Pure lipids were reconstituted in chloroform:methanol (2:1 v/v) at 1 mg/ml and stored at −20 °C under nitrogen. For peptide–lipid interaction assay, lipid monolayers at the air:water interface were formed by spreading total lipid extract or pure lipids at the surface of 800 µl of sterile PBS using a 50 µl Hamilton’s syringe. Lipids were added until the surface pressure reached the desired value. After 5–10 min of incubation allowing the evaporation of the solvent and stabilisation of the initial surface pressure, 8 µl of HG2 or HG4 diluted in sterile PBS at 100 µg/ml were injected into the 800 µl sub-phase of PBS under the lipid monolayer (pH 7.4, volume 800 µl) using a 10 µl Hamilton’s syringe giving a final concentration of peptide of 1 µg/ml, as preliminary experiments had shown that this concentration was optimal. The variation of the surface pressure caused by peptide insertion was then continuously monitored using a fully automated microtensiometer (µTROUGH SX, Kibron Inc, Finland) until it reached equilibrium (maximal surface pressure increase is usually obtained after 15–25 min). To reflect physiological situations, the initial surface pressure was fixed at 30 ± 0.5 mN/m in some experiments as this value corresponds to a lipid packing density theoretically equivalent to that of the outer leaflet of the eukaryotic and prokaryotic cell membrane. In other experiments, the critical pressure of insertion of HG2 or HG4 in the total lipid extracts and pure lipids was measured as follows[14],[56]. Briefly, in these experiments, the initial pressure of the lipid monolayer was set up at different values (between 10 and 30 mN/m) and the variation of pressure caused by the injection of the peptide was measured. […] All experiments were carried out in a controlled atmosphere at 20 ± 1 °C and data were analyzed using the Firmware 2.5 programme (Kibron Inc.). The accuracy of the system under our experimental conditions was determined to be ±0.25 mN/m for surface pressure measurements.

[3] = tested on: K. pneumoniae ATCC 700603; test: microbe, parasite or virus in culture; type: cell-based, Klebsiella pneumoniae; conditions: ATCC 700603
Experimental: (§1) To determine the antimicrobial activity of the new antimicrobial peptides, HG2 and HG4, their minimum inhibitory concentrations (MICs) were determined by broth microdilution method[51] in cation adjusted Mueller Hinton broth (MHB) following the International Organisation for Standardisation (ISO) 20776-1 standard for MIC testing using a final bacterial inoculum of 5 × 10^5 CFU/ml[52]. […] The peptides dissolved in sterile distilled water were added to bacteria culture and incubated overnight at appropriate conditions. The MICs of the peptides and comparator antibiotics were recorded after 18–24 h. The minimum bactericidal concentrations (MBCs) were also determined and were taken as the lowest concentration of the antimicrobial that prevented the growth of bacterial cells after the subculture of cells (from MIC treatment) onto antibiotic-free media.

K. pneumoniae NCTC 13442 = test: microbe, parasite or virus in culture; type: cell-based, Klebsiella pneumoniae; conditions: NCTC 13442
Experimental: as §1

K. pneumoniae 526903 = test: microbe, parasite or virus in culture; type: cell-based, Klebsiella pneumoniae; conditions: 526903
Experimental: as §1

K. pneumoniae 518842 = test: microbe, parasite or virus in culture; type: cell-based, Klebsiella pneumoniae; conditions: 518842
Experimental: as §1

Row | SMILES | toxicity against reporter cell line (resazurin assay) [1] | larvae survival rate, uninfected larvae (G. mellonella larvae) [%] | toxic effect in G. mellonella (G. mellonella larvae) | Speed of insertion [2] [mN/m/10 sec] | Critical pressure of insertion πc [2] [mN/m] | MIC [3] [µg/mL] | MIC (K. pneumoniae NCTC 13442) [µg/mL] | MIC (K. pneumoniae 526903) [µg/mL] | MIC (K. pneumoniae 518842) [µg/mL]
1 | CC[C@H](C)[C@H](NC(=O)[C@H](CC(C)C)NC(=O)[C@H](CC(C)C)NC(=O)[C@H](CC(C)C)NC(=O)[C@H](CCCCN)NC(=O)[C@H](CCCCN)NC(=O)[C@@H](N)CCSC)C(=O)N[C@@H](CC(C)C)C(=O)N[C@@H](Cc1ccccc1)C(=O)N[C@H]1CSSC[C@@H](C(=O)N[C@@H](CCCCN)C(=O)N[C@@H](CCCCN)C(=O)N[C@@H](C)C(=O)N2CCC[C@H]2C(N)=O)NC(=O)CNC(=O)[C@H](C)NC(=O)[C@H](CC(C)C)NC(=O)[C@H](C)NC(=O)[C@H](CC(C)C)NC(=O)[C@H](C)NC(=O)[C@H](CC(C)C)NC1=O [HG2] (H-MKKLLLILFCLALALAGCKKAP-NH2; disulfide 10-18; N-terminus assumed) | no toxicity | 100 | no toxic effect | 0.80 | 47.81 | >512 | 512 (≈ 217 µM) | >512 | 512 (≈ 217 µM)
2 | CC[C@H](C)[C@H](NC(=O)[C@H](CC(C)C)NC(=O)[C@H](CC(C)C)NC(=O)[C@H](C)NC(=O)CNC(=O)CNC(=O)[C@@H](NC(=O)[C@@H](NC(=O)[C@H](CC(C)C)NC(=O)[C@H](C)NC(=O)[C@H](CC(C)C)NC(=O)CNC(=O)[C@H](CC(C)C)NC(=O)[C@@H](N)C(C)C)[C@@H](C)CC)C(C)C)C(=O)N[C@@H](CCCCN)C(=O)N[C@@H](CCCCN)C(=O)N[C@@H](CCCCN)C(=O)N[C@@H](CCC(N)=O)C(=O)N[C@@H](C)C(=O)N[C@@H](CCCCN)C(=O)N[C@@H](CO)C(N)=O [HG4] (H-VLGLALIVGGALLIKKKQAKS-NH2; N-terminus and C-terminus assumed) | no toxicity | 100 | no toxic effect | 0.39 | 40.04 | >512 | 512 (≈ 242 µM) | 512 (≈ 242 µM) | 512 (≈ 242 µM)
